The subject of assay [1] is Staphylococcus aureus. The assay can be described thus: Antibacterial activity against methicillin-resistant Staphylococcus aureus N315 by NCCLS method. The assay is classed as functional.
The subject of another assay is Saccharomyces cerevisiae. The assay is described as follows: Antifungal activity against Saccharomyces cerevisiae by NCCLS method. The assay is classed as functional.
In a further assay the test system is Shigella dysenteriae. The assay can be described thus: Antibacterial activity against Shigella dysenteriae by NCCLS method. It counts as functional.
The test system of another assay is Escherichia coli. The assay is described as follows: Antibacterial activity against Escherichia coli DH52 by NCCLS method. The assay is classed as functional.
Assay [2] relates to Aspergillus flavus. The assay can be described thus: Antifungal activity against Aspergillus flavus by NCCLS method. The assay is classed as functional.
The subject of assay [3] is Staphylococcus aureus. The assay can be described thus: Antibacterial activity against Staphylococcus aureus ATCC 25923 by NCCLS method. The assay is classed as functional.
The test system of another assay is Pseudomonas aeruginosa. The assay is described as follows: Antibacterial activity against Pseudomonas aeruginosa by NCCLS method. It counts as functional.
A further assay deals with Micrococcus luteus. The assay is described as follows: Antibacterial activity against Micrococcus luteus ATCC 4698 by NCCLS method. The assay is classed as functional.
The next assay deals with Salmonella typhi. The assay is described as follows: Antibacterial activity against Eberthella typhosa by NCCLS method. It counts as functional, Salmonella enterica subsp. enterica serovar Typhi. As to conditions: Salmonella enterica.
The subject of the next assay is Candida albicans. The assay can be described thus: Antifungal activity against Candida albicans by NCCLS method. The assay is classed as functional.
Assay [4] relates to Aspergillus flavus. The assay is described as follows: Ratio of Fluconazole MIC to compound MIC for Aspergillus flavus. The assay is classed as functional.
For another assay, the system named is Cyberlindnera jadinii. The assay is described as follows: Antifungal activity against Candida utilis by NCCLS method. The assay is classed as functional. The note with it: Williopsis jadinii.
For assay [5], the system named is Staphylococcus aureus. The assay is described as follows: Ratio of norfloxacin MIC to compound MIC for methicillin-resistant Staphylococcus aureus N315. It counts as functional.
The subject of assay [6] is Staphylococcus aureus. The assay can be described thus: Ratio of chloromycin MIC to compound MIC for methicillin-resistant Staphylococcus aureus N315. The assay is classed as functional.

Molecules are shown by their SMILES. In brackets after ≈: the same amount, converted by molar mass.

In general, MIC refers to the least concentration at which growth counts as inhibited.

On to `CCOC(=O)c1cn(CC2CO2)c2c(F)cc(F)cc2c1=O` (racemic), for which the MIC in the assay on Staphylococcus aureus [1] was 8 µg/mL (≈ 25.9 µM); with Saccharomyces cerevisiae it was 64 µg/mL (≈ 207 µM); with Shigella dysenteriae, over 512 µg/mL; with Escherichia coli, 128 µg/mL (≈ 414 µM); against Aspergillus flavus [2], 1 µg/mL (≈ 3.23 µM); with Staphylococcus aureus [3], 16 µg/mL (≈ 51.7 µM). For the same compound, the MIC is 64 µg/mL (≈ 207 µM) in the assay on Pseudomonas aeruginosa; 2 µg/mL (≈ 6.47 µM) against Micrococcus luteus; 2 µg/mL (≈ 6.47 µM) against Salmonella typhi; 4 µg/mL (≈ 12.9 µM) against Candida albicans; over 512 µg/mL with Cyberlindnera jadinii. Moreover, the Ratio in the assay with Aspergillus flavus [4] was determined as 256.

For `O=C(O)c1cn(CC(O)Cn2cncn2)c2c(F)cc(F)cc2c1=O` (stereo not drawn), the MIC was 8 µg/mL (≈ 22.8 µM) against Staphylococcus aureus [1]; 512 µg/mL (≈ 1460 µM) in the assay on Saccharomyces cerevisiae; 16 µg/mL (≈ 45.7 µM) against Shigella dysenteriae; 2 µg/mL (≈ 5.71 µM) against Escherichia coli; 256 µg/mL (≈ 731 µM) against Aspergillus flavus [2]; 2 µg/mL (≈ 5.71 µM) in the assay with Staphylococcus aureus [3]. Moreover, the MIC with Pseudomonas aeruginosa is 2 µg/mL (≈ 5.71 µM); in the assay on Micrococcus luteus, 2 µg/mL (≈ 5.71 µM); against Salmonella typhi, 1 µg/mL (≈ 2.85 µM); in the assay with Candida albicans, 8 µg/mL (≈ 22.8 µM); in the assay with Cyberlindnera jadinii, over 512 µg/mL.

For the compound `OC(Cn1cncn1)(Cn1cncn1)c1ccc(F)cc1F` [FLUCONAZOLE], the MIC was over 512 µg/mL against Staphylococcus aureus [1]; 16 µg/mL (≈ 52.2 µM) with Saccharomyces cerevisiae; over 512 µg/mL in the assay with Shigella dysenteriae; over 512 µg/mL with Escherichia coli; 256 µg/mL (≈ 836 µM) in the assay with Aspergillus flavus [2]; over 512 µg/mL in the assay with Staphylococcus aureus [3]. Moreover, the MIC against Pseudomonas aeruginosa is over 512 µg/mL; in the assay with Micrococcus luteus it was over 512 µg/mL; in the assay on Salmonella typhi it was over 512 µg/mL; against Candida albicans, 1 µg/mL (≈ 3.27 µM); against Cyberlindnera jadinii, 8 µg/mL (≈ 26.1 µM).

`CCOC(=O)c1cn(CC(O)Cn2cncn2)c2ccc(C)cc2c1=O` (racemic): the MIC in the assay on Staphylococcus aureus [1] was 2 µg/mL (≈ 5.61 µM); against Saccharomyces cerevisiae, 64 µg/mL (≈ 180 µM); against Shigella dysenteriae, 4 µg/mL (≈ 11.2 µM); in the assay on Escherichia coli, 4 µg/mL (≈ 11.2 µM); in the assay on Aspergillus flavus [2], 256 µg/mL (≈ 718 µM); against Staphylococcus aureus [3] it was 64 µg/mL (≈ 180 µM). Further, the MIC was 2 µg/mL (≈ 5.61 µM) against Pseudomonas aeruginosa; 16 µg/mL (≈ 44.9 µM) in the assay with Micrococcus luteus; 4 µg/mL (≈ 11.2 µM) in the assay on Salmonella typhi; 128 µg/mL (≈ 359 µM) against Candida albicans; over 512 µg/mL against Cyberlindnera jadinii.

For `CCn1cc(C(=O)O)c(=O)c2cc(F)c(N3CCNCC3)cc21` [NORFLOXACIN], the MIC in the assay with Staphylococcus aureus [1] is 8 µg/mL (≈ 25.1 µM); in the assay on Saccharomyces cerevisiae, over 512 µg/mL; against Shigella dysenteriae it was 4 µg/mL (≈ 12.5 µM); against Escherichia coli, 16 µg/mL (≈ 50.1 µM); with Aspergillus flavus [2], over 512 µg/mL; with Staphylococcus aureus [3], 0.5 µg/mL (≈ 1.57 µM). For the same compound, the MIC is 1 µg/mL (≈ 3.13 µM) against Pseudomonas aeruginosa; 2 µg/mL (≈ 6.26 µM) with Micrococcus luteus; 4 µg/mL (≈ 12.5 µM) in the assay with Salmonella typhi; over 512 µg/mL in the assay with Candida albicans; over 512 µg/mL against Cyberlindnera jadinii.

On to `O=C(O)c1cn(CC(O)Cn2cncn2)c2cc(C(F)(F)F)ccc2c1=O` (stereo not drawn), for which the MIC in the assay with Staphylococcus aureus [1] amounted to 1 µg/mL (≈ 2.62 µM); in the assay on Saccharomyces cerevisiae, 256 µg/mL (≈ 670 µM); in the assay on Shigella dysenteriae it was 1 µg/mL (≈ 2.62 µM); against Escherichia coli it was 8 µg/mL (≈ 20.9 µM); against Aspergillus flavus [2], 512 µg/mL (≈ 1340 µM); in the assay with Staphylococcus aureus [3] it was 1 µg/mL (≈ 2.62 µM). Also, the MIC was 8 µg/mL (≈ 20.9 µM) with Pseudomonas aeruginosa; 2 µg/mL (≈ 5.23 µM) in the assay with Micrococcus luteus; 4 µg/mL (≈ 10.5 µM) against Salmonella typhi; 1 µg/mL (≈ 2.62 µM) with Candida albicans; over 512 µg/mL against Cyberlindnera jadinii. Also, the Ratio with Staphylococcus aureus [5] turned out to be 8; with Staphylococcus aureus [6], 16.

On to `O=C(O)c1cn(CC(O)Cn2cncn2)c2cc(Cl)c(F)cc2c1=O` (stereo not drawn), for which the MIC is 64 µg/mL (≈ 175 µM) against Staphylococcus aureus [1]; 256 µg/mL (≈ 698 µM) in the assay with Saccharomyces cerevisiae; 64 µg/mL (≈ 175 µM) against Shigella dysenteriae; 8 µg/mL (≈ 21.8 µM) in the assay on Escherichia coli; 128 µg/mL (≈ 349 µM) with Aspergillus flavus [2]; 64 µg/mL (≈ 175 µM) in the assay with Staphylococcus aureus [3]. For the same compound, the MIC against Pseudomonas aeruginosa is 2 µg/mL (≈ 5.45 µM); in the assay on Micrococcus luteus, 16 µg/mL (≈ 43.6 µM); in the assay on Salmonella typhi, 4 µg/mL (≈ 10.9 µM); in the assay with Candida albicans, 16 µg/mL (≈ 43.6 µM); in the assay with Cyberlindnera jadinii it was over 512 µg/mL.

As for `CCOC(=O)c1cn(CC(O)Cn2cncn2)c2cc(C(F)(F)F)ccc2c1=O` (racemic), the MIC against Staphylococcus aureus [1] came out at 32 µg/mL (≈ 78 µM); in the assay on Saccharomyces cerevisiae, 64 µg/mL (≈ 156 µM); against Shigella dysenteriae, 32 µg/mL (≈ 78 µM); against Escherichia coli, 32 µg/mL (≈ 78 µM); in the assay with Aspergillus flavus [2] it was 8 µg/mL (≈ 19.5 µM); against Staphylococcus aureus [3], 16 µg/mL (≈ 39 µM). The MIC in the assay on Pseudomonas aeruginosa is 1 µg/mL (≈ 2.44 µM); with Micrococcus luteus, 2 µg/mL (≈ 4.87 µM); against Salmonella typhi it was 0.5 µg/mL (≈ 1.22 µM); in the assay with Candida albicans it was 64 µg/mL (≈ 156 µM); with Cyberlindnera jadinii it was 128 µg/mL (≈ 312 µM).

As for `CCOC(=O)c1cn(CC2CO2)c2c(F)cccc2c1=O` (racemic), the MIC in the assay on Staphylococcus aureus [1] was determined as 2 µg/mL (≈ 6.87 µM); against Saccharomyces cerevisiae, 4 µg/mL (≈ 13.7 µM); in the assay on Shigella dysenteriae it was 512 µg/mL (≈ 1760 µM); against Escherichia coli, 16 µg/mL (≈ 54.9 µM); against Aspergillus flavus [2], 0.5 µg/mL (≈ 1.72 µM); in the assay with Staphylococcus aureus [3], 2 µg/mL (≈ 6.87 µM). The MIC in the assay with Pseudomonas aeruginosa was 256 µg/mL (≈ 879 µM); with Micrococcus luteus, over 512 µg/mL; against Salmonella typhi it was 2 µg/mL (≈ 6.87 µM); in the assay on Candida albicans, 1 µg/mL (≈ 3.43 µM); in the assay with Cyberlindnera jadinii it was over 512 µg/mL. Moreover, the Ratio with Aspergillus flavus [4] is on record as 256.

The values above are taken from ChEMBL document CHEMBL2380271, “Synthesis and biological evaluation of a class of quinolone triazoles as potential antimicrobial agents and their interactions with calf thymus DNA” (2013).
